Measurements as given in ChEMBL document CHEMBL1132968, “Substituent effects on the antibacterial activity of nitrogen-carbon-linked (azolylphenyl)oxazolidinones with expanded activity against the fastidious gram-negative organisms Haemophilus influenzae and Moraxella catarrhalis” (2000).
In brackets after ≈: the same amount, converted by molar mass.

Legend:
Format in all cases: functional
[1] = test system: Mus musculus; assay: Dose required to cure 50% of Staphylococcus aureus infected mice in the presence of vancomycin when administered orally.; details: po
[2] = test system: Streptococcus pneumoniae; assay: Inhibitory activity against Streptococcus pneumoniae UC9912
[3] = test system: Haemophilus influenzae; assay: Inhibitory activity against Haemophilus influenzae UC30063
[4] = test system: Mus musculus; assay: Dose required to cure 50% of Staphylococcus aureus infected mice when orally administered;value ranges from 3.1-7.8; details: po
[5] = test system: Moraxella catarrhalis; assay: Inhibitory activity against Moraxella catarrhalis UC30610
[6] = test system: Staphylococcus aureus; assay: Inhibitory activity against Methicillin-resistant Staphylococcus aureus UC6685
[7] = test system: Staphylococcus aureus; assay: Inhibitory activity against Methicillin-susceptible Staphylococcus aureus UC9213
[8] = test system: Enterococcus faecalis; assay: Inhibitory activity against Enterococcus faecalis UC9217
[9] = test system: Staphylococcus epidermidis; assay: Inhibitory activity against Methicillin-resistant Staphylococcus epidermidis UC12084
[10] = test system: Mus musculus; assay: Dose required to cure 50% of Staphylococcus aureus infected mice when administered orally;; details: po
[11] = test system: Mus musculus; assay: Dose required to cure 50% of Staphylococcus aureus infected mice in the presence of eperezolid when administered orally; vlue ranges from 1.1-2.8; details: po
[12] = test system: Mus musculus; assay: Dose required to cure 50% of Staphylococcus aureus infected mice when administered orally; the value ranges from 1.1-3.3; details: po
[13] = test system: Mus musculus; assay: Dose required to cure 50% of Staphylococcus aureus infected mice in the presence of eperezolid when orally administered; the value ranges from 1.7-4.5; details: po

SMILES | ED50 [1] | MIC [2] | MIC [3] | ED50 [4] | MIC [5] | MIC [6] | MIC [7] | MIC [8] | MIC [9] | ED50 [10] | ED50 [11] | ED50 [12] | ED50 [13]
CC(=O)NC[C@H]1CN(c2ccc(-n3ccnn3)c(F)c2)C(=O)O1 | 2 mg/kg/day | ≤ 0.5 µg/mL | 4 µg/mL (≈ 12.5 µM) | 4.7 mg/kg/day | 2 µg/mL (≈ 6.26 µM) | 1 µg/mL (≈ 3.13 µM) | 1 µg/mL (≈ 3.13 µM) | 1 µg/mL (≈ 3.13 µM) | ≤ 0.5 µg/mL | – | – | – | –
CC(=O)NC[C@H]1CN(c2ccc(-n3cnnc3)c(F)c2)C(=O)O1 | – | 1 µg/mL (≈ 3.13 µM) | > 16 µg/mL | – | 8 µg/mL (≈ 25.1 µM) | 8 µg/mL (≈ 25.1 µM) | 16 µg/mL (≈ 50.1 µM) | 8 µg/mL (≈ 25.1 µM) | 4 µg/mL (≈ 12.5 µM) | > 20 mg/kg/day | 2 mg/kg/day | – | –
CC(=O)NC[C@H]1CN(c2ccc(-n3cc(C#N)nn3)c(F)c2)C(=O)O1 | – | ≤ 0.125 µg/mL | 2 µg/mL (≈ 5.81 µM) | – | 2 µg/mL (≈ 5.81 µM) | 0.5 µg/mL (≈ 1.45 µM) | 1 µg/mL (≈ 2.9 µM) | 1 µg/mL (≈ 2.9 µM) | 0.25 µg/mL (≈ 0.726 µM) | – | – | 1.9 mg/kg/day | 2.8 mg/kg/day
